Some test systems named below: A498; CAKI-1; COLO 205; HCT-116; HOP-92; HT-29; LOX IMVI; M14; MDA-MB-435; MDA-N; NCI-H226; NCI-H23; NCI-H522; PC-3; SF-295; SF-539; SK-MEL-2; SR; TK-10; RPMI-8226.
Common to all, as to assay: NCI tumour cell line growth inhibition, 48 h

Ten molecules from ChEMBL document CHEMBL1201862, “PubChem BioAssay data set” (2004) can be followed below.

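96-well plates; 48 h exposure; 5 concentrations. Endpoints by linear interpolation between flanking doses. Not reached: highest tested concentration assigned. At the GI50, growth is halved.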 Activity calls are given as the source filed them. No stated cut-off is given here; in the data, active = GI50 up to about 1.1 µM and inactive = higher.

For the molecule `Nc1ccc2c(c1)S(=O)(=O)c1cc(O)ccc1O2`, the GI50 is 31.2 µM (inactive) in the assay on A498; 45.2 µM (inactive) with CAKI-1; > 100 µM (inactive) in the assay on COLO 205; > 100 µM (inactive) in the assay on HCT-116; > 100 µM (inactive) with HOP-92; > 100 µM (inactive) in the assay on HT-29. For the same molecule, the GI50 in the assay on LOX IMVI, with M14, with MDA-MB-435, with MDA-N, in the assay on NCI-H226 and in the assay with NCI-H23 was > 100 µM (inactive) in each case. Also, the GI50 in the assay on NCI-H522 is > 100 µM (inactive); in the assay with PC-3, > 100 µM (inactive); with SF-295, > 100 µM (inactive); with SF-539, > 100 µM (inactive); in the assay with SK-MEL-2 it was > 100 µM (inactive); in the assay with SR it was 39.7 µM (inactive). The GI50 in the assay on TK-10 was > 100 µM (inactive).

With `CCCCC(C#N)(OP1(=O)OC(c2ccccc2)C(C)N1C)c1ccccc1` (stereo not drawn), the GI50 with A498 is 18.9 µM (inactive); with CAKI-1 it was 18.7 µM (inactive); in the assay with COLO 205, 17.8 µM (inactive); in the assay on HCT-116, 16.2 µM (inactive); in the assay on HOP-92, 12.4 µM (inactive); in the assay on HT-29, 18.1 µM (inactive). Moreover, the GI50 is 18.9 µM (inactive) with LOX IMVI; 20.7 µM (inactive) with M14; 17.7 µM (inactive) with MDA-MB-435; 16.4 µM (inactive) in the assay with MDA-N; 19.7 µM (inactive) with NCI-H23; 17.2 µM (inactive) in the assay on NCI-H522. Also, the GI50 is 17 µM (inactive) in the assay with PC-3; 20.8 µM (inactive) in the assay with RPMI-8226; 17.5 µM (inactive) with SF-295; 15.5 µM (inactive) with SF-539; 19.2 µM (inactive) in the assay on SK-MEL-2; 19.9 µM (inactive) in the assay on SR. The GI50 in the assay with TK-10 was 18.9 µM (inactive).

For `O=C(/C=C/c1ccc2c(c1)OCO2)Cc1nc2ncccc2[nH]c1=O`, the GI50 in the assay on A498 is > 100 µM (inactive); with CAKI-1 it was > 100 µM (inactive); in the assay on COLO 205, 70.3 µM (inactive); in the assay with HCT-116 it was > 100 µM (inactive); in the assay on HOP-92 it was > 100 µM (inactive); in the assay with HT-29 it was > 100 µM (inactive). Besides, the GI50 in the assay with LOX IMVI is 8.53 µM (inactive); in the assay with M14, > 100 µM (inactive); in the assay with MDA-MB-435 it was > 100 µM (inactive); with MDA-N it was > 100 µM (inactive); in the assay on NCI-H23, > 100 µM (inactive); in the assay on NCI-H522 it was 60.7 µM (inactive). Also, the GI50 is > 100 µM (inactive) with PC-3; > 100 µM (inactive) in the assay on RPMI-8226; 69.3 µM (inactive) in the assay with SF-295; 53.7 µM (inactive) in the assay with SF-539; > 100 µM (inactive) in the assay on SK-MEL-2; 77.1 µM (inactive) in the assay on SR. In the assay with TK-10, the GI50 was 42.8 µM (inactive).

Consider `CCOC(=O)c1ccc(C(=O)/C(C#N)=C2\CCCN2)[nH]1`, for which the GI50 with A498 is > 100 µM (inactive); in the assay with CAKI-1 it was > 100 µM (inactive); with COLO 205, > 100 µM (inactive); with HCT-116 it was 82.4 µM (inactive); with HOP-92, > 100 µM (inactive); with HT-29 it was 72.3 µM (inactive). Further, the GI50 in the assay with LOX IMVI is > 100 µM (inactive); in the assay on M14, > 100 µM (inactive); in the assay on MDA-MB-435 it was 28.8 µM (inactive); with MDA-N, 30.1 µM (inactive); in the assay on NCI-H226, > 100 µM (inactive); with NCI-H23 it was > 100 µM (inactive). Moreover, the GI50 is 67.8 µM (inactive) with PC-3; > 100 µM (inactive) in the assay with RPMI-8226; > 100 µM (inactive) in the assay with SF-295; > 100 µM (inactive) in the assay on SF-539; 97.1 µM (inactive) in the assay on SK-MEL-2; 19.6 µM (inactive) in the assay with SR.

As to `CC(=O)OCC(C)(COC(C)=O)N1C(=O)C2C3c4ccccc4C(c4ccccc43)C2C1=O` (stereo not drawn), the GI50 was > 100 µM (inactive) in the assay with A498; > 100 µM (inactive) in the assay with CAKI-1; > 100 µM (inactive) in the assay with COLO 205; 33 µM (inactive) with HCT-116; > 100 µM (inactive) in the assay with HOP-92; > 100 µM (inactive) in the assay with HT-29. In addition, the GI50 is > 100 µM (inactive) in the assay on LOX IMVI; > 100 µM (inactive) with M14; > 100 µM (inactive) in the assay on MDA-MB-435; 28.1 µM (inactive) with MDA-N; > 100 µM (inactive) with NCI-H226; > 100 µM (inactive) in the assay on NCI-H23. The GI50 in the assay on PC-3, in the assay on RPMI-8226, in the assay with SF-295, in the assay on SF-539, in the assay with SR and in the assay on TK-10 was > 100 µM (inactive) each time.

Regarding `COc1cc([C@@H]2c3cc4c(cc3[C@@H](/N=C/c3ccc(C(=O)O[C@H]5C[C@H]6OC[C@@]6(OC(C)=O)[C@H]6[C@H](OC(=O)c7ccccc7)[C@]7(O)C[C@H](OC(=O)[C@H](OC(=O)c8ccc(/C=N/[C@@H]9c%10cc%11c(cc%10[C@@H](c%10cc(OC)c(O)c(OC)c%10)[C@H]%10C(=O)OC[C@@H]%109)OCO%11)cc8)[C@@H](NC(=O)c8ccccc8)c8ccccc8)C(C)=C([C@@H](OC(C)=O)C(=O)[C@]56C)C7(C)C)cc3)C3COC(=O)C32)OCO4)cc(C)c1O` (stereo partly drawn), the GI50 was 5.16 µM (inactive) in the assay with A498; 12.8 µM (inactive) with CAKI-1; 19.6 µM (inactive) in the assay with COLO 205; 9.08 µM (inactive) in the assay on HCT-116; 10.9 µM (inactive) in the assay on HT-29; 22.9 µM (inactive) with LOX IMVI. The GI50 is 6.49 µM (inactive) in the assay with M14; 2.33 µM (inactive) in the assay on MDA-MB-435; 1.82 µM (inactive) in the assay with MDA-N; 10.9 µM (inactive) in the assay on NCI-H226; 17.2 µM (inactive) with NCI-H23; 9.06 µM (inactive) in the assay with NCI-H522. The GI50 in the assay on PC-3 is 6.58 µM (inactive); with RPMI-8226, > 50 µM (inactive); in the assay on SF-295, 5.07 µM (inactive); with SF-539, 7.23 µM (inactive); in the assay on SK-MEL-2, 13.7 µM (inactive); in the assay with SR, 8.02 µM (inactive). Besides, in the assay with TK-10, the GI50 is > 50 µM (inactive).

In the case of `COC(=O)C(Cc1ccccc1)NP(=O)(O)OCC1OC(n2cc(F)c(=O)[nH]c2=O)CC1O` (stereo not drawn), the GI50 with A498 was 7.38 µM (inactive); in the assay with CAKI-1, 3.72 µM (inactive); with COLO 205 it was 74 µM (inactive); in the assay with HCT-116, 5.53 µM (inactive); in the assay on HT-29, 11.2 µM (inactive); in the assay with LOX IMVI, 3.21 µM (inactive). Besides, the GI50 in the assay on M14 was 21.3 µM (inactive); in the assay on MDA-MB-435, > 86.3 µM (inactive); in the assay on MDA-N it was > 69 µM (inactive); in the assay on NCI-H226, > 33.4 µM (inactive); in the assay with NCI-H23, 10.9 µM (inactive); with NCI-H522 it was > 100 µM (inactive). The GI50 with PC-3 is > 78.5 µM (inactive); with RPMI-8226, > 79.6 µM (inactive); in the assay with SF-295, 3.72 µM (inactive); in the assay with SF-539, 0.991 µM (active); in the assay with SK-MEL-2, > 100 µM (inactive); with SR, 2.54 µM (inactive). In the assay with TK-10, the GI50 is > 100 µM (inactive).

As for `COc1ccc(OC)c2sc(N3C(=O)/C(=C/c4ccc(Cl)cc4)N=C3c3ccccc3)nc12`, the GI50 in the assay with A498 was > 100 µM (inactive); with CAKI-1 it was > 100 µM (inactive); in the assay on COLO 205 it was > 100 µM (inactive); in the assay on HCT-116, > 100 µM (inactive); with HOP-92, 49.5 µM (inactive); with HT-29, > 100 µM (inactive). Also, the GI50 with LOX IMVI was 34.2 µM (inactive); with M14, > 100 µM (inactive); in the assay on MDA-MB-435, 30.8 µM (inactive); with MDA-N, 34.2 µM (inactive); in the assay with NCI-H23, > 100 µM (inactive); with NCI-H522 it was 48.9 µM (inactive). Moreover, the GI50 was 58.1 µM (inactive) with PC-3; 33.7 µM (inactive) in the assay on RPMI-8226; 76.6 µM (inactive) in the assay with SF-295; > 100 µM (inactive) in the assay on SF-539; > 100 µM (inactive) in the assay with SK-MEL-2; 43.4 µM (inactive) in the assay on SR. For the same molecule, the GI50 with TK-10 is 72.6 µM (inactive).

For the molecule `Cc1c(-c2ccccc2)[nH]c2cn[nH]c(=O)c12`, the GI50 in the assay with A498, with CAKI-1, in the assay with COLO 205, in the assay on HCT-116, in the assay with HOP-92 and with HT-29 was > 100 µM (inactive) in each case. In addition, the GI50 in the assay on LOX IMVI is 70.6 µM (inactive); with M14, > 100 µM (inactive); with MDA-MB-435, > 100 µM (inactive); in the assay on MDA-N, > 100 µM (inactive); with NCI-H23, > 100 µM (inactive); with NCI-H522, 86.1 µM (inactive). Further, the GI50 with PC-3 is 67.9 µM (inactive); in the assay on RPMI-8226 it was 74 µM (inactive); in the assay with SF-295 it was 41 µM (inactive); in the assay on SF-539 it was > 100 µM (inactive); with SK-MEL-2, 90.8 µM (inactive); in the assay with SR, 88.7 µM (inactive). Also, the GI50 in the assay with TK-10 is > 100 µM (inactive).

Regarding `CCOC(=O)C1C(c2ccc(OC)cc2)c2c(n[nH]c2O)CC1(C)O` (stereo not drawn), the GI50 with A498, in the assay on CAKI-1, in the assay with COLO 205, in the assay on HCT-116, with HOP-92 and in the assay on HT-29 was > 100 µM (inactive) each time. Moreover, the GI50 in the assay on LOX IMVI, in the assay on M14, with MDA-MB-435, with MDA-N, in the assay with NCI-H23 and with NCI-H522 was > 100 µM (inactive) each time. Moreover, the GI50 in the assay with PC-3 was > 100 µM (inactive); with RPMI-8226 it was > 100 µM (inactive); with SF-295, 45.1 µM (inactive); in the assay with SF-539, > 100 µM (inactive); in the assay with SK-MEL-2 it was > 100 µM (inactive); with SR it was > 100 µM (inactive). Further, in the assay with TK-10, the GI50 was > 100 µM (inactive).
